Columns and labels:
[1] = Binding affinity to yeast Hsp90 by isothermal titration calorimetric method; set-up: species or system Saccharomyces cerevisiae
[2] = Inhibition of Saccharomyces cerevisiae PP30 HSP82 expressed in Escherichia coli BL21(DE3)pLysS by PK/LDH coupled spectrophotometric assay

Compound C[C@@H]1C[C@H]2O[C@@H]2/C=C\C=C\C(=O)Cc2c(Cl)c(O)cc(O)c2C(=O)O1 [RADICICOL] has a Kd [1] of 19 nM and an IC50 [2] of 20 to 23 nM.
With COC1=C2C[C@@H](C)C[C@H](OC)[C@H](O)[C@@H](C)/C=C(\C)[C@H](OC(N)=O)[C@@H](OC)/C=C\C=C(/C)C(=O)NC(=CC1=O)C2=O [GELDANAMYCIN] the Kd [1] was 1200 nM and the IC50 [2] was 1000 to 5000 nM.
